Test results published in patent publication US11389415B2, “Methods of regulating cannabinoid receptor activity-related disorders and diseases” (The United States of America as represented by the …, priority 2012, dated 2022).

Legend:
HepG2 cells = assay: [3H]-Thymidine incorporation assay in HepG2 cells; format: cell-based, human
Protocol: Maintenance and Treatment of Cell Lines. Human HepG2 hepatocarcinoma cells and human U87MG glioma cells (ATCC, Manassas, Va.) were maintained in EMEM medium supplemented with 1% L-glutamine, 1% sodium pyruvate, 1% penicillin/streptomycin, and 10% FBS (Hyclone, Logan, Utah). The human 1321N1 astrocytoma cells (European Collection of Cell Cultures, Sigma-Aldrich) were cultured in Dulbecco's modified Eagle's medium supplemented with 10% FBS and penicillin/streptomycin. All cell lines were cultured at 37° C. in 5% CO2, and the medium was replaced every 2-3 days.
Cells were seeded in 12-well plates at approximately 50,000 cells/well and incubated at 37° C. After 24 hours, the wells were rinsed with PBS and replaced with serum-free medium containing the appropriate concentration of the test compounds. After another 24-hour incubation at 37° C., 1 μCi of [^3H]-thymidine was added to each well and incubated at 37° C. for 16 hours. [^3H]-Thymidine incorporation into DNA was monitored after the cells were washed twice with PBS and then lysed in 600 μL of 0.1N NaOH for 30 minutes with shaking. The lysate was then mixed with 3 mL of liquid scintillation cocktail (Beckman Coulter, Inc., Brea, Calif.), and radioactivity was measured by liquid scintillation counting using Beckman Coulter LS6000IC Scintillation Counter. Data are shown as CPM incorporated compared to the control cells.

1321N1 cells = details: previously reported; read-out: Mitogenesis Inhibition in 1321N1 cells (IC50 nM)* (converted); cited from earlier work
HepG2 and PANC-1 cells = assay: Cell morphology and EGFR expression in HepG2 and PANC-1 cells; format: cell-based, human; details: 5 μM, 16 hours
Protocol: FIGS. 26A-26C show MNF interferes with inducible changes in cell morphology and expression of EGFR. […] White arrows show individual cells with filopodia. FIG. 26C, Cell lysates were prepared from similar studies and immunoblotted for EGFR. The membranes were reprobed for Hsp90, which served as a loading control.
(§1) Western blot analysis. For detection of intracellular signaling proteins, cells were lysed in radioimmunoprecipitation buffer containing EGTA and EDTA (Boston BioProducts, Ashland, Mass.). The lysis buffer contained a protease inhibitor cocktail (Sigma-Aldrich) and phosphatase inhibitor cocktail (Calbiochem, San Diego, Calif.). Equivalent amount of proteins (14 and 54 μg/well for PANC-1 and HepG2 cells, respectively) were separated on 4 to 12% precast gels (Invitrogen, Carlsbad, Calif.) using SDS-polyacrylamide gel electrophoresis under reducing conditions and then electrophoretically transferred onto polyvinylidene fluoride membrane (Invitrogen). Western blots were performed according to standard methods, which involved blocking in 5% non-fat milk and incubated with the antibody of interest, followed by incubation with a secondary antibody conjugated with the enzyme horseradish perodixase. The detection of immunoreactive bands was performed by chemiluminescence using the ECL Plus Western Blotting Detection System (GE Healthcare, Piscataway, N.J.). The quantification of bands was done by volume densitometry by using ImageJ software. The rabbit polyclonal antibodies against EGFR were obtained from Cell Signaling Technology, Inc. (Beverly, Mass.) and the monoclonal anti-Hsp90 was purchased from Santa Cruz Biotechnology, Inc. (Santa Cruz, Calif.).

ERK1/2 = ERK1/2 phosphorylation (GPR55 downstream signaling) in HepG2 cells; format: cell-based, human; details: HepG2, 2.5 and 10 μM, 10 minutes
Protocol: as §1
Effect of MNF on O-1602-mediated increase in cell signaling. Serum-starved cells were pretreated in the absence or presence of 1 μM MNF for 10 minutes followed by a 10 minute incubation with 0, 2.5 and 10 μM O-1602 or 10% FBS, after which the levels of total ERK2 and phosphorylated forms of ERK1/2 (pErk1/2, Thr202/Tyr204), were determined by Western blotting technique. All primary antibodies were purchased from Cell Signaling Technology and used at a dilution recommended by the manufacturer.

GPR55 [1] = target: T1, GPR55 (Homo sapiens, UniProt Q9Y2T6); assay: Cellular uptake of TocriFluor T1117 in HepG2 cells; format: cell-based; parameters: host or cells: HepG2 hepatocarcinoma cells; details: HepG2, 0.25 μM, 30 minutes pretreatment
GPR55 [2] = target: T1, GPR55; assay: GPR55 internalization assay in hGPR55-HEK293 cells; format: cell-based; details: HEK293 stably expressing HA-tagged GPR55, 5 μM, 20 minutes
Protocol: GPR55 internalization assay. Endocytosis of GPR55 was observed following a previously described protocol with minor modifications (Henstridge et al., Br. J. Pharmacol. 160: 604-614, 2010). Briefly, hGPR55-HEK293 cells were grown on Lab-Tek II CC2 chamber slides (Thermo Scientific Nunc, Rochester, N.Y.) for 48 hours in regular media and then were serum starved for 1 hour. A preincubation with 1:1000 rabbit HA antibody (Covance, Md.) was performed in the presence of vehicle (0.1% DMSO) or 1 μM MNF in serum-free media for 45 minutes at 37° C. in the CO2 incubator. Cells were then washed extensively with PBS and treated with 5 μM 01602 in serum-free media for 20 minutes at 37° C. in the CO2 incubator. Subsequently, cells were washed three times, fixed in fresh 3.7% paraformaldehyde in PBS (10 min), and incubated with anti-rabbit Alexa Fluor 488 antibody (Molecular Probes, Eugene, Oreg.; 1:1000, 30 minutes). Cells were washed and fixed for a second time prior to permeabilization with 0.2% Triton X-100 (5 minutes). Incubation with anti-rabbit Alexa Fluor 568 antibody (Molecular Probes; 1:1000, 30 minutes) was carried out to determine the extent of internalized GPR55-HA antibody complex. […]

T1 sequence (Q9Y2T6 whole entry): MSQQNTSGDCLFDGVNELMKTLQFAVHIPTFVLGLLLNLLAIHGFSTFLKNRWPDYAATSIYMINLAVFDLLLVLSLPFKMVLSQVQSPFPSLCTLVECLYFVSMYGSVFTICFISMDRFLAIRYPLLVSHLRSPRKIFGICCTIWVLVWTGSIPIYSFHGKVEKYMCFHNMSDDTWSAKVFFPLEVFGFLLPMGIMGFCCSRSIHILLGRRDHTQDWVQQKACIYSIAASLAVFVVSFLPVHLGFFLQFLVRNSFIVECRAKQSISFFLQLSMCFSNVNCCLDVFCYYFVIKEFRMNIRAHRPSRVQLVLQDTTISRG

Row | Structure (SMILES) | % Change in HepG2 cells ([3H]-thymidine incorporation) (HepG2 cells; 1 μM, 24 h) | IC50 (1321N1 cells) | EGFR levels (HepG2 and PANC-1 cells) | ERK phosphorylation (ERK1/2) | reduction in the amount of T1117 incorporated (GPR55 [1]) | delay in cellular accumulation of T1117 (GPR55 [1]; 10 nM T1117) | GPR55 internalization (GPR55 [2]) | % Change in HepG2 cells ([3H]-thymidine incorporation) (HepG2 cells; at 10 μM)
1 | C[C@@H](Cc1ccc(O)cc1)NC[C@@H](O)c1cc(O)cc(O)c1 [(S,S′)-Fen, fenoterol] | 9.7% | 184 nM |  |  |  |  |  | 
2 | C=C(C)[C@@H]1CCC(C)=C[C@H]1c1c(C)cc(O)cc1O [O-1602, reference compound] |  |  | led to higher EGFR levels when compared to vehicle-treated cells | dose-dependently increased ERK phosphorylation | 47% | 12.5 min | led to marked endocytosis of HA-tagged GPR55 | 
3 | CCC(Cc1ccc(O)cc1)NCC(O)c1cc(O)cc(O)c1 [(R,R′)-ethylFen, (R,R′)-ethylfenoterol] |  | 1.44 ± 0.27 nM |  |  |  |  |  | (R,R′): 50.90 at 10 μM %
